In patent US20240158446A1, “CYCLIC COMPOUND HAVING SELECTIVE INHIBITORY ACTION ON KRAS OVER HRAS AND NRAS” (CHUGAI SEIYAKU KABUSHIKI KAISHA, priority 2021, published 2024):
Read-outs that look alike come from different tables or passages of the source. *1 amine or outer side, *2 acyl side, *3 side chain or, on linkers, in order; H or OH if unused. Where a SMILES comes first, the peptide text is derived from it. Bridges are numbered along the chain shown (N, C = ends). [ ]: non-standard residue; d: D form. The star is where a group is joined. hPhe(3-Cl-4-CF3) = N[C@@H](CCc1ccc(C(F)(F)F)c(Cl)c1)C(=O)O; NPrPhe(4-CF3) = CCCN[C@@H](Cc1ccc(C(F)(F)F)cc1)C(=O)O; X3 = CCCN([C@H](C(=O)[*:2])C1CCCC1)[*:1]; NMeGly(cPent) = CN[C@H](C(=O)O)C1CCCC1; Hyp = O=C(O)[C@@H]1C[C@@H](O)CN1; NMeD = CN[C@@H](CC(=O)O)C(=O)O; NMeL = CN[C@@H](CC(C)C)C(=O)O; Morpholide = C1CN(*)CCO1; NMeA = CN[C@@H](C)C(=O)O; Ac5c = NC1(C(=O)O)CCCC1; Aze = O=C(O)[C@@H]1CCN1; Ac4c = NC1(C(=O)O)CCC1; Sar = CNCC(=O)O

Columns and labels:
[1] = target: GDP-bound NRAS wild-type protein (Homo sapiens, UniProt P01111); experiment: Binding to NRAS by surface plasmon resonance (SPR), Single Cycle Kinetics; conditions: for NRAS/KRAS (ratio of KD value with respect to NRAS to KD value with respect to KRAS) / NRAS/KRAS (ratio of KD value for NRAS to KD value for KRAS): SPR, GDP-bound NRAS wild-type protein vs GDP-bound KRAS wild-type protein
Sequence of GDP-bound NRAS wild-type protein (P01111 whole entry): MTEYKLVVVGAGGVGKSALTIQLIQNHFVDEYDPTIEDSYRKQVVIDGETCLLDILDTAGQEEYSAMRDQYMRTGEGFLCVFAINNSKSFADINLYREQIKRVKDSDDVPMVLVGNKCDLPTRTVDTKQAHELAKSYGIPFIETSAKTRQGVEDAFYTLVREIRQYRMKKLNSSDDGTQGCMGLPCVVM

[2] = target: GDP-bound HRAS wild-type protein (Homo sapiens, UniProt P01112); experiment: Binding to HRAS by surface plasmon resonance (SPR), Single Cycle Kinetics; conditions: for HRAS/KRAS (ratio of KD value with respect to HRAS to KD value with respect to KRAS) / HRAS/KRAS (ratio of KD value for HRAS to KD value for KRAS): SPR, GDP-bound HRAS wild-type protein vs GDP-bound KRAS wild-type protein
Sequence of GDP-bound HRAS wild-type protein (P01112 whole entry): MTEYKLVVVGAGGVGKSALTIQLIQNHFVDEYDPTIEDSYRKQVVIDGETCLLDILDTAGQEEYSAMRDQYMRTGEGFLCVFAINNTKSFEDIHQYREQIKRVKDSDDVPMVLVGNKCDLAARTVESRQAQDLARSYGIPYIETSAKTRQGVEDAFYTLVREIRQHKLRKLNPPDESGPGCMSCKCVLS

[3] = target: GDP-bound KRAS wild-type protein (Homo sapiens, UniProt P01116); experiment: Binding to KRAS by surface plasmon resonance (SPR), Single Cycle Kinetics; conditions: GDP-bound KRAS wild-type protein, read-out: KRAS KD
Sequence of GDP-bound KRAS wild-type protein (P01116 whole entry): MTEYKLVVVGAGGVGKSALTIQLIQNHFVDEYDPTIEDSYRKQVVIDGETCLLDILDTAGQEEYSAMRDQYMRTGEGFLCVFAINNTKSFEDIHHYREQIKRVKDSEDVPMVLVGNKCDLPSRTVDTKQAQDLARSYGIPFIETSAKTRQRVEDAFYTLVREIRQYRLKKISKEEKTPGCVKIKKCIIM

[4] = SPR Single Cycle Kinetics, 1:1 binding model
[5] = SPR, Single Cycle Kinetics, 1:1 binding model

Row | Structure (SMILES) | Kd [3, 4] [nM] | Kd ([3]; SPR, Single Cycle Kinetics) [nM] | NRAS/KRAS (ratio of KD value for NRAS to KD value for KRAS) [1] | HRAS/KRAS (ratio of KD value for HRAS to KD value for KRAS) [2] | also measured
1 | CCCN1C(=O)[C@@H]2CCN2C(=O)[C@H](C)N(C)C(=O)[C@H]([C@@H](C)CC)NC(=O)[C@H](CC(C)C)N(C)C(=O)C[C@@H](C(=O)N2CCOCC2)NC(=O)[C@H](C2CCCC2)N(C)C(=O)C2(CCC2)NC(=O)[C@@H]2C[C@@H](OCC)CN2C(=O)[C@H](CCc2ccc(C(F)(F)F)c(Cl)c2)NC(=O)CN(C)C(=O)[C@@H]1Cc1ccc(C(F)(F)F)cc1 [PP0348] ([NMeL]I[NMeA][Aze][NPrPhe(4-CF3)][Sar][hPhe(3-Cl-4-CF3)][Hyp](Et)[Ac4c][NMeGly(cPent)]D-Morpholide; lactam N-11) | 0.38 |  | C (A compound having a KD ratio of 0.1 or more and less than 3 is denoted as C) | B (a compound having 3 or more and less than 10 is denoted as B) | 
2 | CCO[C@@H]1C[C@H]2C(=O)NC3(CCC3)C(=O)N(C)[C@@H](C3CCCC3)C(=O)N(C)[C@H](C(=O)N(C)C)CC(=O)N(C)[C@@H](CC)C(=O)N[C@@H]([C@@H](C)CC)C(=O)N(C)CC(=O)N(C)[C@H]3CCCCCN(C3=O)[C@@H](Cc3ccc(F)cc3OC)C(=O)N(C)CC(=O)N[C@@H](CCc3cc(F)c(C(F)(F)F)c(F)c3)C(=O)N2C1 [PP0914] |  | 0.43 | B (a compound having 3 or more and less than 10 is denoted as B) | B (a compound having 3 or more and less than 10 is denoted as B) | 
3 | CC[C@H](C)[C@@H]1NC(=O)[C@H](CC2CC2)N(C)C(=O)C[C@@H](C(=O)N(C)C)N(C)C(=O)[C@H](C2CCCC2)N(C)C(=O)C2(CCC2)NC(=O)[C@@H]2C[C@@H](F)CN2C(=O)[C@H](CCc2cc(F)c(C(F)(F)F)c(F)c2)NC(=O)CN(C)C(=O)[C@H](Cc2ccc(C(F)(F)F)cc2)N2CC/C=C\C[C@@H](C2=O)N(C)C(=O)CN(C)C1=O [PP1497, (2S,8S,12R,14S,20S,23S,27S,30S,36S,38Z)-20-cyclopentyl-27-(cyclopropylmethyl)-8-[2-[3,5-difluoro-4-(trifluoromethyl)phenyl]ethyl]-12-fluoro-N,N,4,19,22,26,32,35-octamethyl-30-[(1S)-1-methylpropyl]-3,6,9,15,18,21,25,28,31,34,42-undecaoxo-2-[[4-(trifluoromethyl)phenyl]methyl]spiro[1,4,7,10,16,19,22,26,29,32,35-undecazatricyclo[34.5.1.0^10,14]dotetracont-38-ene-17,1′-cyclobutane]-23-carboxamide] |  |  |  |  | NRAS/KRAS (ratio of KD value for NRAS to KD value for KRAS) ([1]; KD ratio class): A (a compound having 10 or more and less than 20 is denoted as A); HRAS/KRAS (ratio of KD value for HRAS to KD value for KRAS) ([2]; KD ratio class): A (a compound having 10 or more and less than 20 is denoted as A); Kd [3, 5]: 0.022 nM
4 | CCO[C@@H]1C[C@H]2C(=O)NC3(CC(C)(C)C3)C(=O)N(C)[C@@H](C3CCCC3)C(=O)N(C)[C@H](C(=O)N(C)C)CC(=O)N(C)[C@@H](CC3CC3)C(=O)N[C@@H]([C@@H](C)CC)C(=O)N(C)CC(=O)N(C)[C@H]3C/C=C\CCN(C3=O)[C@@H](Cc3ccc(C(F)(F)F)cc3)C(=O)N(C)CC(=O)N[C@@H](CCc3ccc(C(F)(F)F)c(OC)c3)C(=O)N2C1 [PP1563] |  |  |  |  | NRAS/KRAS (ratio of KD value for NRAS to KD value for KRAS) ([1]; KD ratio class): A (a compound having 10 or more and less than 20 is denoted as A); HRAS/KRAS (ratio of KD value for HRAS to KD value for KRAS) ([2]; KD ratio class): A (a compound having 10 or more and less than 20 is denoted as A); Kd [3, 5]: 0.048 nM
5 | CCCN1C(=O)[C@@H]2CCN2C(=O)CN(C)C(=O)[C@H]([C@@H](C)CC)NC(=O)[C@H](CC(C)C)N(C)C(=O)C[C@@H](C(=O)N(C)C)N(C)C(=O)[C@H](C2CCCC2)N(C)C(=O)C2(CCCC2)NC(=O)[C@@H]2C[C@@H](OCC)CN2C(=O)[C@H](CCc2ccc(C(F)(F)F)c(Cl)c2)NC(=O)CN(C)C(=O)[C@@H]1Cc1ccc(C(F)(F)F)cc1 [PP0444] ([NMeL]I[Sar][Aze][NPrPhe(4-CF3)][Sar][hPhe(3-Cl-4-CF3)][Hyp](Et)[Ac5c][NMeGly(cPent)][NMeD]-NMe2; lactam N-11) | 0.031 |  |  |  | NRAS/KRAS (ratio of KD value with respect to NRAS to KD value with respect to KRAS) [1]: C (A compound having a KD ratio of 0.1 or more and less than 3 is denoted as C); HRAS/KRAS (ratio of KD value with respect to HRAS to KD value with respect to KRAS) [2]: C (A compound having a KD ratio of 0.1 or more and less than 3 is denoted as C)
6 | CCO[C@@H]1C[C@H]2C(=O)NC3(CCCC3)C(=O)N(C)[C@@H](C3CCCC3)C(=O)N(C)[C@H](C(=O)N(C)C)CC(=O)N(C)[C@@H](CC)C(=O)N[C@@H]([C@@H](C)CC)C(=O)N(C)CC(=O)N(C)[C@H]3CC(C)=CCN(C3=O)[C@@H](Cc3ccc(C(F)(F)F)cc3)C(=O)N(C)CC(=O)N[C@@H](CCc3cc(F)c(C(F)(F)F)c(F)c3)C(=O)N2C1 [PP1036] |  | 0.75 | C (A compound having a KD ratio of 0.1 or more and less than 3 is denoted as C) | C (A compound having a KD ratio of 0.1 or more and less than 3 is denoted as C) | 
7 | C=CCCC[C@H]1C(=O)N[C@@H]([C@@H](C)CC)C(=O)N(C)CC(=O)N(C)[C@H]2CCCCN(C2=O)[C@@H](Cc2ccc(C(F)(F)F)cc2)C(=O)N(C)CC(=O)N[C@@H](CCc2cc(F)c(C(F)(F)F)c(F)c2)C(=O)N2C[C@H](OCC)C[C@H]2C(=O)N[C@](C)(CC=C)C(=O)N(C)[C@@H](C2CCCC2)C(=O)N(C)[C@H](C(=O)N2CCOCC2)CC(=O)N1C [PP0876] |  | 0.4 | C (A compound having a KD ratio of 0.1 or more and less than 3 is denoted as C) | C (A compound having a KD ratio of 0.1 or more and less than 3 is denoted as C) | 
8 | CCO[C@@H]1C[C@H]2C(=O)NC3(CCCC3)C(=O)N(C)[C@@H](C3CCCC3)C(=O)N(C)[C@H](C(=O)N(C)C)CC(=O)N(C)[C@@H](CC)C(=O)N[C@@H]([C@@H](C)CC)C(=O)N(C)CC(=O)N(C)[C@H]3CC(C)=C(C)CN(C3=O)[C@@H](Cc3ccc(C(F)(F)F)cc3)C(=O)N(C)CC(=O)N[C@@H](CCc3cc(F)c(C(F)(F)F)c(F)c3)C(=O)N2C1 [PP1050] |  | 0.94 | C (A compound having a KD ratio of 0.1 or more and less than 3 is denoted as C) | C (A compound having a KD ratio of 0.1 or more and less than 3 is denoted as C) | 

Now from value to compound, other results behind:

Row | Kd [3, 4] [nM] | Kd ([3]; SPR, Single Cycle Kinetics) [nM] | Structure (SMILES) | NRAS/KRAS (ratio of KD value for NRAS to KD value for KRAS) [1] | HRAS/KRAS (ratio of KD value for HRAS to KD value for KRAS) [2] | also measured
9 | 0.02 |  | CCO[C@@H]1C[C@H]2C(=O)NC3(CCC3)C(=O)N(C)[C@@H](C3CCCC3)C(=O)N(C)[C@H](C(=O)N3CCOCC3)CC(=O)N(C)[C@@H](COC)C(=O)N[C@@H]([C@@H](C)CC)C(=O)N(C)CC(=O)N(C)[C@H]3CCCCN(C3=O)[C@@H](Cc3ccc(C(F)(F)F)cc3)C(=O)N(C)CC(=O)N[C@@H](CCc3cc(F)c(C(F)(F)F)c(F)c3)C(=O)N2C1 [PP0719] |  |  | NRAS/KRAS (ratio of KD value with respect to NRAS to KD value with respect to KRAS) [1]: C (A compound having a KD ratio of 0.1 or more and less than 3 is denoted as C); HRAS/KRAS (ratio of KD value with respect to HRAS to KD value with respect to KRAS) [2]: B (a compound having 3 or more and less than 10 is denoted as B)
10 | 0.12 |  | CCCC[C@H]1C(=O)N[C@@H]([C@@H](C)CC)C(=O)N(C)CC(=O)N(C)[C@H]2C/C=C\CCN(C2=O)[C@@H](Cc2ccc(C)cc2)C(=O)N(C)CC(=O)N[C@@H](CCc2cc(F)c(C(F)(F)F)c(F)c2)C(=O)N2C[C@H](OCC)C[C@H]2C(=O)NC2(CCC2)C(=O)N(C)[C@@H](C2CCCC2)C(=O)N(C)[C@H](C(=O)N(C)CC)CC(=O)N1C [PP2796] |  |  | NRAS/KRAS (ratio of KD value with respect to GDP-bound NRAS wild-type protein to KD value with respect to KRAS) ([1]; SPR KD ratio NRAS/KRAS, class symbols): A (a compound having 10 or more and less than 20 is denoted as A); HRAS/KRAS (ratio of KD value with respect to GDP-bound HRAS wild-type protein to KD value with respect to KRAS) ([2]; SPR KD ratio HRAS/KRAS, class symbols): A (a compound having 10 or more and less than 20 is denoted as A)
11 | 3.8 |  | CCCN1C(=O)CN(C)C(=O)CN(C)C(=O)[C@H]([C@@H](C)CC)NC(=O)[C@H](CC(C)C)N(C)C(=O)C[C@@H](C(=O)N2CCOCC2)N(C)C(=O)[C@H](C2CCCC2)N(C)C(=O)C2(CCCC2)NC(=O)[C@@H]2CCCN2C(=O)[C@H](CCc2ccc(C(F)(F)F)c(Cl)c2)NC(=O)CN(C)C(=O)[C@@H]1C1CCCC1 [PP0061] ([NMeL]I[Sar][Sar][X3][Sar][hPhe(3-Cl-4-CF3)]P[Ac5c][NMeGly(cPent)][NMeD]-Morpholide; lactam N-11) | B (a compound having 3 or more and less than 10 is denoted as B) | C (A compound having a KD ratio of 0.1 or more and less than 3 is denoted as C) | 
12 | 1.7 |  | CCCN1C(=O)CN(C)C(=O)CN(C)C(=O)[C@H]([C@@H](C)CC)NC(=O)[C@H](CC(C)C)N(C)C(=O)C[C@@H](C(=O)N2CCOCC2)N(C)C(=O)[C@H](C2CCCC2)N(C)C(=O)[C@@H](C)NC(=O)[C@@H]2CCCN2C(=O)[C@H](CCc2ccc(C(F)(F)F)c(Cl)c2)NC(=O)CN(C)C(=O)[C@@H]1Cc1ccc(C(F)(F)F)cc1 [PP0150] ([NMeL]I[Sar][Sar][NPrPhe(4-CF3)][Sar][hPhe(3-Cl-4-CF3)]P[dA][NMeGly(cPent)][NMeD]-Morpholide; lactam N-11) | B (a compound having 3 or more and less than 10 is denoted as B) | C (A compound having a KD ratio of 0.1 or more and less than 3 is denoted as C) | 
